Experimental data: PubChem BioAssay AID248 (DTP/NCI, 2004)
Several values for one entry are separate records, joined by “and”; a condition that tells them apart may be missing. Identical values can stand only once. Inconclusive results and toxic doses are left out.

Tested on: L1210 leukemia ip in BDF1 mice, survival T/C
Assay: NCI In Vivo Anticancer Drug Screen. Data for tumor model L1210 Leukemia (intraperitoneal) in B6D2F1 (BDF1) mice
Details: endpoint: mean survival time, higher = longer survival
Outline: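 Tumor was transplanted into mice, which were then dosed with test compound or vehicle alone. Survival was recorded for each group, and the treated figure was expressed relative to the control figure.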

[1] = dose: 100.0 mg/kg/injection, schedule: Q01DX001 (ip), vehicle: saline
[2] = dose: 200.0 mg/kg/injection, schedule: Q01DX001 (ip), vehicle: saline
[3] = dose: 400.0 mg/kg/injection, schedule: Q01DX001 (ip), vehicle: saline
[4] = dose: 100.0 mg/kg/injection, schedule: Q01DX009 (ip), vehicle: Klucel (hydroxypropylcellulose) (HPC)
[5] = dose: 200.0 mg/kg/injection, schedule: Q01DX009 (ip), vehicle: Klucel (hydroxypropylcellulose) (HPC)
[6] = dose: 400.0 mg/kg/injection, schedule: Q01DX009 (ip), vehicle: Klucel (hydroxypropylcellulose) (HPC)
[7] = dose: 100.0 mg/kg/injection, schedule: Q04DX002 (ip), vehicle: saline
[8] = dose: 200.0 mg/kg/injection, schedule: Q04DX002 (ip), vehicle: saline
[9] = dose: 400.0 mg/kg/injection, schedule: Q04DX002 (ip), vehicle: saline
[10] = dose: 100.0 mg/kg/injection, schedule: Q04DX003 (ip), vehicle: Klucel (hydroxypropylcellulose) (HPC)
[11] = dose: 200.0 mg/kg/injection, schedule: Q04DX003 (ip), vehicle: Klucel (hydroxypropylcellulose) (HPC)
[12] = dose: 400.0 mg/kg/injection, schedule: Q04DX003 (ip), vehicle: Klucel (hydroxypropylcellulose) (HPC)
[13] = dose: 100.0 mg/kg/injection, schedule: Q04DX003 (ip), vehicle: saline with Tween-80
[14] = dose: 200.0 mg/kg/injection, schedule: Q04DX003 (ip), vehicle: saline with Tween-80

## O=C(Nc1ccc(Cl)cc1)Nc1ccc([N+](=O)[O-])cc1[N+](=O)[O-]
dose: 100.0 mg/kg/injection, schedule: Q04DX002 (ip), vehicle: Klucel (hydroxypropylcellulose) (HPC)
  T/C: 111 % of control
dose: 200.0 mg/kg/injection, schedule: Q04DX002 (ip), vehicle: Klucel (hydroxypropylcellulose) (HPC)
  T/C: 108 % of control
dose: 400.0 mg/kg/injection, schedule: Q04DX002 (ip), vehicle: Klucel (hydroxypropylcellulose) (HPC)
  T/C: 108 % of control

## CCOC(=O)NN(C(=O)OCC)c1c(N(C)NC(C)=O)nc(N)[nH]c1=O
[1]
  T/C: 96 % of control
[2]
  T/C: 86 % of control
[3]
  T/C: 96 % of control

## CCC([N+](=O)[O-])S(=O)(=O)c1ccc(C)cc1 (configuration not stated)
[1]
  T/C: 98 % of control
dose: 100.0 mg/kg/injection, schedule: Q01DX009 (ip), vehicle: saline
  T/C: 98 % of control
dose: 100.0 mg/kg/injection, schedule: Q04DX003 (ip), vehicle: saline
  T/C: 102 % of control
[2]
  T/C: 95 % of control
dose: 200.0 mg/kg/injection, schedule: Q01DX009 (ip), vehicle: saline
  T/C: 94 % of control and 95 % of control
dose: 200.0 mg/kg/injection, schedule: Q04DX003 (ip), vehicle: saline
  T/C: 100 % of control
[3]
  T/C: 93 % of control
dose: 400.0 mg/kg/injection, schedule: Q01DX009 (ip), vehicle: saline
  T/C: 93 % of control and 103 % of control
dose: 400.0 mg/kg/injection, schedule: Q04DX003 (ip), vehicle: saline
  T/C: 94 % of control

## O=C(Nc1ccc(CCO)cc1)Nc1cccc(F)c1
[4]
  T/C: 103 % of control
[5]
  T/C: 102 % of control
[6]
  T/C: 88 % of control

## CC(=O)OCCOc1ccc(Cl)cc1
[7]
  T/C: 107 % of control
[8]
  T/C: 96 % of control
[9]
  T/C: 107 % of control

## CC1C(=O)OC(C)(C)OC1=O
dose: 25.0 mg/kg/injection, schedule: Q01DX009 (ip), vehicle: Klucel (hydroxypropylcellulose) (HPC)
  T/C: 99 % of control
dose: 50.0 mg/kg/injection, schedule: Q01DX009 (ip), vehicle: Klucel (hydroxypropylcellulose) (HPC)
  T/C: 100 % of control
[4]
  T/C: 98 % of control
[5]
  T/C: 94 % of control
[6]
  T/C: 103 % of control

## CN(C)N=Nc1cccnc1
dose: 8.0 mg/kg/injection, schedule: Q01DX009 (ip), vehicle: saline
  T/C: 97 % of control
dose: 9.5 mg/kg/injection, schedule: Q01DX001 (ip), vehicle: saline
  T/C: 106 % of control
dose: 14.0 mg/kg/injection, schedule: Q01DX009 (ip), vehicle: saline
  T/C: 103 % of control
dose: 19.0 mg/kg/injection, schedule: Q01DX001 (ip), vehicle: saline
  T/C: 106 % of control
dose: 23.0 mg/kg/injection, schedule: Q01DX009 (ip), vehicle: saline
  T/C: 108 % of control
dose: 38.0 mg/kg/injection, schedule: Q01DX001 (ip), vehicle: saline
  T/C: 117 % of control
dose: 57.0 mg/kg/injection, schedule: Q01DX009 (ip), vehicle: saline
  T/C: 150 % of control
dose: 86.0 mg/kg/injection, schedule: Q01DX009 (ip), vehicle: saline
  T/C: 162 % of control

## CC1CCCCN1C(=O)CCCCl (configuration not stated)
[7]
  T/C: 111 % of control
[8]
  T/C: 101 % of control
[9]
  T/C: 88 % of control

## Cc1ccc(Nc2cc(=S)nc(N)[nH]2)cc1C
dose: 100.0 mg/kg/injection, schedule: Q01DX Z (ip), vehicle: methylcellulose (MC)
  T/C: 103 % of control
dose: 200.0 mg/kg/injection, schedule: Q01DX Z (ip), vehicle: methylcellulose (MC)
  T/C: 95 % of control

## C[N+](C)(C)CCOC(=O)c1cccc(CBr)c1CBr
dose: 6.25 mg/kg/injection, schedule: Q01DX009 (ip), vehicle: saline
  T/C: 103 % of control
dose: 6.25 mg/kg/injection, schedule: Q04DX003 (ip), vehicle: saline
  T/C: 104 % of control
dose: 12.5 mg/kg/injection, schedule: Q01DX009 (ip), vehicle: saline
  T/C: 97 % of control
dose: 12.5 mg/kg/injection, schedule: Q04DX003 (ip), vehicle: saline
  T/C: 98 % of control
dose: 25.0 mg/kg/injection, schedule: Q01DX009 (ip), vehicle: saline
  T/C: 97 % of control
dose: 25.0 mg/kg/injection, schedule: Q04DX003 (ip), vehicle: saline
  T/C: 104 % of control

## O=C1c2c(O)ccc([N+](=O)[O-])c2C(=O)c2c([N+](=O)[O-])ccc(O)c21
[4]
  T/C: 93 % of control
[10]
  T/C: 106 % of control
[5]
  T/C: 105 % of control
[11]
  T/C: 95 % of control
[6]
  T/C: 103 % of control
[12]
  T/C: 95 % of control

## COC(c1ccccc1)C(Br)C(=O)c1ccccc1 (configuration not stated)
dose: 100.0 mg/kg/injection, schedule: Q04DX003 (ip), vehicle: acetone
  T/C: 96 % of control
dose: 200.0 mg/kg/injection, schedule: Q04DX003 (ip), vehicle: acetone
  T/C: 101 % of control
dose: 400.0 mg/kg/injection, schedule: Q04DX003 (ip), vehicle: acetone
  T/C: 95 % of control

## Cc1c(CCC(C)C)oc2cc3oc(CCC(C)C)c(C)c3cc12
dose: 75.0 mg/kg/injection, schedule: Q01DX001 (ip), vehicle: carboxymethylcellulose (CMC)
  T/C: 96 % of control
dose: 150.0 mg/kg/injection, schedule: Q01DX001 (ip), vehicle: carboxymethylcellulose (CMC)
  T/C: 90 % of control
dose: 300.0 mg/kg/injection, schedule: Q01DX001 (ip), vehicle: carboxymethylcellulose (CMC)
  T/C: 90 % of control

## CCC(CC)(CC)OC(=O)NS(=O)(=O)c1ccc(Cl)cc1
dose: 100.0 mg/kg/injection, schedule: Q01DX009 (ip), vehicle: acetone
  T/C: 107 % of control
[13]
  T/C: 120 % of control
[14]
  T/C: 104 % of control
dose: 400.0 mg/kg/injection, schedule: Q04DX003 (ip), vehicle: saline with Tween-80
  T/C: 109 % of control

## FC(F)(F)c1nc2cccc3c2n1CCC3
dose: 50.0 mg/kg/injection, schedule: Q01DX009 (ip), vehicle: saline with Tween-80
  T/C: 93 % of control
dose: 100.0 mg/kg/injection, schedule: Q01DX009 (ip), vehicle: saline with Tween-80
  T/C: 87 % of control
[13]
  T/C: 97 % of control
dose: 200.0 mg/kg/injection, schedule: Q01DX009 (ip), vehicle: saline with Tween-80
  T/C: 101 % of control
[14]
  T/C: 96 % of control

## CCOC(=O)Nc1cc(Cl)c2n[nH]nc2n1
dose: 25.0 mg/kg/injection, schedule: Q01DX005 (ip), vehicle: saline
  T/C: 105 % of control
dose: 50.0 mg/kg/injection, schedule: Q01DX005 (ip), vehicle: saline
  T/C: 113 % of control
dose: 100.0 mg/kg/injection, schedule: Q01DX005 (ip), vehicle: saline
  T/C: 110 % of control

## FC(F)(F)S.[Ag]
dose: 75.0 mg/kg/injection, schedule: Q01DX001 (ip), vehicle: saline
  T/C: 95 % of control
dose: 150.0 mg/kg/injection, schedule: Q01DX001 (ip), vehicle: saline
  T/C: 95 % of control

## CCOC(=O)C(C#N)C(C)CC (configuration not stated)
[4]
  T/C: 102 % of control
[10]
  T/C: 98 % of control
[5]
  T/C: 98 % of control
[11]
  T/C: 102 % of control
[6]
  T/C: 94 % of control
[12]
  T/C: 90 % of control
